#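 Following 48 hours of exposure in 96-well plates, responses at five concentrations were used to interpolate endpoints linearly. At the GI50, growth is halved.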 Active and inactive are the calls of the source. Cut-off read from the data, not from the text of the source: active = GI50 up to about 1.1 µM and inactive = higher.
# How the values were obtained:
# Test in all cases: DTP human tumour cell line panel, 48 h
# PC-3 = test system: PC-3
# NCI-H226 = test system: NCI-H226
# Malme-3M = test system: Malme-3M
# UO-31 = test system: UO-31
# HCT-116 = test system: HCT-116
# NCI-H460 = test system: NCI-H460
# EKVX = test system: EKVX
# MDA-MB-231 = test system: MDA-MB-231
# RPMI-8226 = test system: RPMI-8226
# SW-620 = test system: SW-620
# SN12C = test system: SN12C
# ACHN = test system: ACHN
# SNB-19 = test system: SNB-19
# HL-60 = test system: HL-60
# OVCAR-5 = test system: OVCAR-5
# LOX IMVI = test system: LOX IMVI
# SK-MEL-2 = test system: SK-MEL-2
# SK-OV-3 = test system: SK-OV-3
# OVCAR-4 = test system: OVCAR-4
# A498 = test system: A498
Compound,GI50 (PC-3),GI50 (NCI-H226),GI50 (Malme-3M),GI50 (UO-31),GI50 (HCT-116),GI50 (NCI-H460),GI50 (EKVX),GI50 (MDA-MB-231),GI50 (RPMI-8226),GI50 (SW-620),GI50 (SN12C),GI50 (ACHN),GI50 (SNB-19),GI50 (HL-60),GI50 (OVCAR-5),GI50 (LOX IMVI),GI50 (SK-MEL-2),GI50 (SK-OV-3),GI50 (OVCAR-4),GI50 (A498)
COC1=C2C[C@](OC)(C#CC=CC#CC2O)CC1(C)C (stereo partly specified),> 100 µM (inactive),> 100 µM (inactive),> 100 µM (inactive),28.6 µM (inactive),> 100 µM (inactive),> 100 µM (inactive),> 100 µM (inactive),> 100 µM (inactive),95.5 µM (inactive),> 100 µM (inactive),> 100 µM (inactive),> 100 µM (inactive),> 100 µM (inactive),55 µM (inactive),> 100 µM (inactive),> 100 µM (inactive),–,–,–,–
Clc1ccccc1CN1COc2c(cc(Cl)c3cccnc23)C1,2.57 µM (inactive),1.3 µM (inactive),2.47 µM (inactive),2.89 µM (inactive),3.64 µM (inactive),2.75 µM (inactive),–,2.3 µM (inactive),–,5.01 µM (inactive),0.0249 µM (active),1.84 µM (inactive),4.35 µM (inactive),0.398 µM (active),4.28 µM (inactive),–,6.19 µM (inactive),8.75 µM (inactive),3.97 µM (inactive),–
CCOC(=O)CC1C(O)C(=O)N(C)C1c1ccccc1 (stereo unspecified),> 100 µM (inactive),> 100 µM (inactive),> 100 µM (inactive),> 100 µM (inactive),> 100 µM (inactive),–,> 100 µM (inactive),> 100 µM (inactive),> 100 µM (inactive),> 100 µM (inactive),> 100 µM (inactive),> 100 µM (inactive),> 100 µM (inactive),> 100 µM (inactive),> 100 µM (inactive),> 100 µM (inactive),> 100 µM (inactive),> 100 µM (inactive),> 100 µM (inactive),–
COc1ccc(C(=O)/C=C/c2ccc(OCC(=N)N)cc2)cc1,14.7 µM (inactive),18.8 µM (inactive),17.9 µM (inactive),19.8 µM (inactive),4.55 µM (inactive),> 10 µM (inactive),16.4 µM (inactive),12.9 µM (inactive),–,3.7 µM (inactive),13.5 µM (inactive),17.6 µM (inactive),15.8 µM (inactive),–,31.7 µM (inactive),–,–,12.9 µM (inactive),14.7 µM (inactive),13.6 µM (inactive)
c1ccc(CN2CCC(=NN3CCCCC3)CC2)cc1,54.8 µM (inactive),> 100 µM (inactive),> 100 µM (inactive),64.7 µM (inactive),64.1 µM (inactive),46.6 µM (inactive),> 100 µM (inactive),43.3 µM (inactive),27.7 µM (inactive),> 100 µM (inactive),> 100 µM (inactive),> 100 µM (inactive),> 100 µM (inactive),20.1 µM (inactive),> 100 µM (inactive),70.6 µM (inactive),> 100 µM (inactive),> 100 µM (inactive),> 100 µM (inactive),–
C[C@@H]1C(=O)O[C@@H]2C[C@@]1(C)[C@@H]1C(=O)C3(O)OC14C2(C)OC(=O)[C@@]4(O)CCC1C3C(O)C=C2CC=CC(=O)[C@@]21C (stereo partly specified),36 µM (inactive),–,–,22.5 µM (inactive),20.7 µM (inactive),29.9 µM (inactive),40.6 µM (inactive),28.8 µM (inactive),19.7 µM (inactive),40.2 µM (inactive),41.2 µM (inactive),53.6 µM (inactive),3.24 µM (inactive),13.4 µM (inactive),25.5 µM (inactive),–,17.9 µM (inactive),47 µM (inactive),27.8 µM (inactive),–

# From ChEMBL document CHEMBL1201862, “PubChem BioAssay data set” (2004)
